In patent US10570122B2, “Compounds with anti-tumoral activity” (AB Science, priority 2015, dated 2020):

How the values were obtained:
HL60 = experiment: CellTiter-Blue cell-based survival/proliferation assay, HL60; settings: Homo sapiens, HL-60, Leukemia cell line HL60, 48 h, read-out: Anti-tumoral activity (measured IC50) HL60
Outline: (§1)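 Compounds, diluted tenfold serially over 0–10 μM, are applied to 1·10^4 seeded cells per well for 48 h at 37 °C. Resorufin formed during a further 4 h with CellTiter-Blue is detected by fluorescence emission at 590 nm.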

HUT78 = experiment: CellTiter-Blue cell-based survival/proliferation assay, HUT78; settings: Homo sapiens, Lymphoma cell line HUT78, 48 h, read-out: Anti-tumoral activity (measured IC50) HUT78
Outline: as §1

KARPAS299 = experiment: CellTiter-Blue cell-based survival/proliferation assay, KARPAS299; settings: Homo sapiens, KARPAS-299, Lymphoma cell line KARPAS299, 48 h, read-out: Anti-tumoral activity (measured IC50) KARPAS299
Outline: as §1

RL = experiment: CellTiter-Blue cell-based survival/proliferation assay, RL; settings: Homo sapiens, Lymphoma cell line RL, 48 h, read-out: Anti-tumoral activity (measured IC50) RL
Protocol: Cell-Based Proliferation Screening of Compounds
CellTiter-Blue cell-based survival/proliferation assay (Promega G8080) was performed on tumor cell lines. A total of 1·10^4 cells/well/50 μl were seeded in a 96-wells plate. Treatment was initiated by addition of a 2× drug solution of 1/10 serial dilutions ranging from 0 to 10 μM. Cells were grown for 48 h at 37° C. and then incubated with 10 μl/well of Promega CellTiter-Bleue reagent for 4 h at 37° C. The amount of resorufin dye formed was quantified by its fluorescence emission at 590 nm using a scanning multiwell spectrophotometer (OPTIMA, BMG labtech, France). A blank well without cells was used as a background control for the spectrophotometer.

OPM2 = experiment: CellTiter-Blue cell-based survival/proliferation assay, OPM2; settings: Homo sapiens, OPM-2, Myeloma cell line OPM2, 48 h, read-out: Anti-tumoral activity (measured IC50) OPM2
Outline: as §1

A498 = experiment: CellTiter-Blue cell-based survival/proliferation assay, A498; settings: Homo sapiens; A498 kidney tumor cell line, 48 h
Outline: as §1

A549 = experiment: CellTiter-Blue cell-based survival/proliferation assay, A549; settings: Homo sapiens; A549 lung tumor cell line, 48 h
Outline: as §1

ACHN = experiment: CellTiter-Blue cell-based survival/proliferation assay, ACHN; settings: Homo sapiens; ACHN kidney tumor cell line, 48 h
Outline: as §1

AGS = experiment: CellTiter-Blue cell-based survival/proliferation assay, AGS; settings: Homo sapiens; AGS stomach tumor cell line, 48 h
Outline: as §1

BT20 = experiment: CellTiter-Blue cell-based survival/proliferation assay, BT20; settings: Homo sapiens, BT-20; BT20 breast tumor cell line, 48 h
Outline: as §1

BXPC3 = experiment: CellTiter-Blue cell-based survival/proliferation assay, BXPC3; settings: Homo sapiens, BXPC-3; BXPC3 pancreas tumor cell line, 48 h
Outline: as §1

CALU6 = experiment: CellTiter-Blue cell-based survival/proliferation assay, CALU6; settings: Homo sapiens, Calu-6; CALU6 lung tumor cell line, 48 h
Outline: as §1

CLS354 = experiment: CellTiter-Blue cell-based survival/proliferation assay, CLS354; settings: Homo sapiens, CLS-354; CLS354_4 head & neck tumor cell line, 48 h
Outline: as §1

DLD1 = experiment: CellTiter-Blue cell-based survival/proliferation assay, DLD1; settings: Homo sapiens, DLD-1; DLD_1 colorectal tumor cell line, 48 h
Outline: as §1

DU145 = experiment: CellTiter-Blue cell-based survival/proliferation assay, DU145; settings: Homo sapiens, DU-145; DU145 prostate tumor cell line, 48 h
Outline: as §1

H1299 = experiment: CellTiter-Blue cell-based survival/proliferation assay, H1299; settings: Homo sapiens, NCI-H1299; H1299 lung tumor cell line, 48 h
Outline: as §1

HCT116 = experiment: CellTiter-Blue cell-based survival/proliferation assay, HCT116; settings: Homo sapiens, HCT-116; HCT116 colorectal tumor cell line, 48 h
Outline: as §1

HEP2 = experiment: CellTiter-Blue cell-based survival/proliferation assay, HEP2; settings: Homo sapiens, HEp-2; HEP2 head & neck tumor cell line, 48 h
Outline: as §1

HEPG2 = experiment: CellTiter-Blue cell-based survival/proliferation assay, HEPG2; settings: Homo sapiens; HEPG2 liver tumor cell line, 48 h
Outline: as §1

HGC27 = experiment: CellTiter-Blue cell-based survival/proliferation assay, HGC27; settings: Homo sapiens, HGC-27; HGC27 stomach tumor cell line, 48 h
Outline: as §1

MDAMB231 = experiment: CellTiter-Blue cell-based survival/proliferation assay, MDAMB231; settings: Homo sapiens, MDA-MB-231; MDAMB231 breast tumor cell line, 48 h
Outline: as §1

MESSA = experiment: CellTiter-Blue cell-based survival/proliferation assay, MESSA; settings: Homo sapiens, MES-SA; MESSA ovary tumor cell line, 48 h
Outline: as §1

PANC1 = experiment: CellTiter-Blue cell-based survival/proliferation assay, PANC1; settings: Homo sapiens, PANC-1; PANC_1 pancreas tumor cell line, 48 h
Outline: as §1

PC3 = experiment: CellTiter-Blue cell-based survival/proliferation assay, PC3; settings: Homo sapiens, PC-3; PC3 prostate tumor cell line, 48 h
Outline: as §1

PLCPRF5 = experiment: CellTiter-Blue cell-based survival/proliferation assay, PLCPRF5; settings: Homo sapiens, PLC-PRF-5; PLC_PRF5 liver tumor cell line, 48 h
Outline: as §1

SW579 = experiment: CellTiter-Blue cell-based survival/proliferation assay, SW579; settings: Homo sapiens; SW579 head & neck tumor cell line, 48 h
Outline: as §1

TOV112D = experiment: CellTiter-Blue cell-based survival/proliferation assay, TOV112D; settings: Homo sapiens; TOV112D ovary tumor cell line, 48 h
Outline: as §1

[1] = system: panel of about 34 human tumor cell lines; experiment: Cell-based proliferation screening on panel of tumor cell lines; settings: solid tumor cell line, cell line unknown, 48 h, read-out: IC50, solid tumor cell line of column 6 (last section of Table 3)
Outline: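 CellTiter-Blue survival assay with 1·10^4 cells/well, each line treated 48 h at 37° C with 1/10 serial dilutions from 0 to 10 μM. Resorufin formed during a 4 h reagent incubation is read by fluorescence at 590 nm. A cell-free blank serves as background.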

Measured: IC50

CCOCc1ccc(C)c(Nc2ncc(-c3ccc(-n4ccnc4)cc3)o2)c1 [Example 037, (5-Ethoxymethyl-2-methyl-phenyl)-[5-(4-imidazol-1-yl-phenyl)-oxazol-2-yl]-amine]
> 1000 nM: all assays above
